Measurements published in ChEMBL document CHEMBL1201862, “PubChem BioAssay data set” (2004).
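Dose response: 5 concentrations. Exposure: 48 h. Format: 96-well plates. Endpoint: linear interpolation; highest concentration if not reached. Abbreviation: GI50, concentration required for 50% inhibition of growth.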 The source made the active and inactive calls. Rule as the data show it: active = GI50 up to about 1.1 µM and inactive = higher.

Legend:
Assay in all cases: inhibition of tumour cell growth, NCI panel, 48 h
CCRF-CEM = system: CCRF-CEM
HCC 2998 = system: HCC 2998
NCI-H23 = system: NCI-H23
SNB-19 = system: SNB-19
SF-295 = system: SF-295
OVCAR-4 = system: OVCAR-4
MDA-MB-231 = system: MDA-MB-231
SNB-75 = system: SNB-75
UACC-62 = system: UACC-62
786-0 = system: 786-0
SR = system: SR
NCI-H460 = system: NCI-H460
HCT-15 = system: HCT-15
RPMI-8226 = system: RPMI-8226
A549 = system: A549
Hs-578T = system: Hs-578T
RXF 393 = system: RXF 393
MDA-N = system: MDA-N
SF-539 = system: SF-539
OVCAR-3 = system: OVCAR-3

SMILES	GI50 (CCRF-CEM)	GI50 (HCC 2998)	GI50 (NCI-H23)	GI50 (SNB-19)	GI50 (SF-295)	GI50 (OVCAR-4)	GI50 (MDA-MB-231)	GI50 (SNB-75)	GI50 (UACC-62)	GI50 (786-0)	GI50 (SR)	GI50 (NCI-H460)	GI50 (HCT-15) [µM]	GI50 (RPMI-8226)	GI50 (A549)	GI50 (Hs-578T)	GI50 (RXF 393)	GI50 (MDA-N)	GI50 (SF-539)	GI50 (OVCAR-3)
Cc1nnc(N)nc1C/C=C/C(Sc1ccc(Cl)cc1)c1ccccc1 (stereo not given)	0.235 µM (active)	9.38 µM (inactive)	3.17 µM (inactive)	3.05 µM (inactive)	1.91 µM (inactive)	4.94 µM (inactive)	6.76 µM (inactive)	4.45 µM (inactive)	2.74 µM (inactive)	3.27 µM (inactive)	3.35 µM (inactive)	3.41 µM (inactive)	3.25	1.43 µM (inactive)	2.82 µM (inactive)	3.27 µM (inactive)	4.45 µM (inactive)	6.21 µM (inactive)		
CC1=C/C(O)CC(=O)Cc2nc(co2)C(=O)N2CCC=C2C(=O)OC(C(C)C)C(C)/C=C\C(=O)NC/C=C\1 (stereo not given)	21.6 µM (inactive)	19.1 µM (inactive)	17.1 µM (inactive)	89.3 µM (inactive)	48 µM (inactive)	57.9 µM (inactive)	23.9 µM (inactive)	11.3 µM (inactive)	16 µM (inactive)	20.8 µM (inactive)	15 µM (inactive)	54 µM (inactive)	19.8	12.9 µM (inactive)	29.9 µM (inactive)	20 µM (inactive)		14.2 µM (inactive)	30.1 µM (inactive)	19.8 µM (inactive)
CC(=O)OC(OC(C)=O)c1ccc2ccc3cccc4ccc1c2c34	42.6 µM (inactive)	11.3 µM (inactive)	18.7 µM (inactive)	19.5 µM (inactive)	18.7 µM (inactive)		10.1 µM (inactive)	15.7 µM (inactive)	12.7 µM (inactive)	36.1 µM (inactive)	21 µM (inactive)	21.4 µM (inactive)	33.7	16.3 µM (inactive)	> 100 µM (inactive)	16.1 µM (inactive)	11.3 µM (inactive)	15.2 µM (inactive)	38.7 µM (inactive)	26.7 µM (inactive)
O=C(O)C12CC3(C(=O)O)CC(C(=O)O)(CC(C(=O)O)(C1)C3=O)C2=O	> 100 µM (inactive)		> 100 µM (inactive)	> 100 µM (inactive)	> 100 µM (inactive)	> 100 µM (inactive)	> 100 µM (inactive)	> 100 µM (inactive)	> 100 µM (inactive)	> 100 µM (inactive)	> 100 µM (inactive)	> 100 µM (inactive)	> 100	> 100 µM (inactive)	> 100 µM (inactive)	> 100 µM (inactive)	> 100 µM (inactive)	> 100 µM (inactive)		> 100 µM (inactive)
CC(=O)N1NC(c2ccccc2)=CC(=O)/C1=C/C(=O)c1ccccc1	29.8 µM (inactive)	> 100 µM (inactive)	> 100 µM (inactive)	58.7 µM (inactive)	58.2 µM (inactive)	84.1 µM (inactive)	> 100 µM (inactive)		42.5 µM (inactive)	> 100 µM (inactive)	20.7 µM (inactive)	71.1 µM (inactive)	70.8	31.3 µM (inactive)	53.1 µM (inactive)	39.9 µM (inactive)	24.2 µM (inactive)	30.6 µM (inactive)	32.1 µM (inactive)	28.6 µM (inactive)
CCCNC(=O)c1cc(NC(=O)c2cc(NC(=O)CCS(=O)(=O)OC)cn2C)cn1C	0.902 µM (active)	43.5 µM (inactive)	17.4 µM (inactive)	2.21 µM (inactive)	> 69.8 µM (inactive)	26.5 µM (inactive)	33.8 µM (inactive)	20.6 µM (inactive)	19.8 µM (inactive)	23.7 µM (inactive)	> 100 µM (inactive)	> 100 µM (inactive)	> 100	> 100 µM (inactive)	> 91 µM (inactive)	32.7 µM (inactive)	14.4 µM (inactive)	20.9 µM (inactive)		10.4 µM (inactive)
C#CC(O)Cc1ccc(OC)c2occc12 (stereo not given)		> 100 µM (inactive)	> 100 µM (inactive)	> 100 µM (inactive)	> 100 µM (inactive)	> 100 µM (inactive)	> 100 µM (inactive)	52.1 µM (inactive)	> 100 µM (inactive)	> 100 µM (inactive)	> 100 µM (inactive)	> 100 µM (inactive)	> 100	> 100 µM (inactive)	> 100 µM (inactive)	> 100 µM (inactive)	> 100 µM (inactive)	> 100 µM (inactive)	> 100 µM (inactive)	> 100 µM (inactive)
NC(=S)N/N=C\c1ccc(OCc2cccc(COc3ccc(/C=N/NC(N)=S)cc3)n2)cc1	45.7 µM (inactive)		69.3 µM (inactive)	> 100 µM (inactive)	> 100 µM (inactive)	44.2 µM (inactive)	5.25 µM (inactive)	> 100 µM (inactive)		> 100 µM (inactive)	38.7 µM (inactive)	> 100 µM (inactive)	43.7	4.33 µM (inactive)	> 100 µM (inactive)	> 100 µM (inactive)	1.63 µM (inactive)	56.8 µM (inactive)	> 100 µM (inactive)	32.7 µM (inactive)
CC[C@@H](C)[C@H](NC(=O)[C@H](Cc1ccccc1)NCC(F)(F)F)C(=O)OC(C)(C)C	74.8 µM (inactive)	> 100 µM (inactive)	> 100 µM (inactive)	> 100 µM (inactive)	> 100 µM (inactive)	82.2 µM (inactive)	> 100 µM (inactive)		47.8 µM (inactive)	> 100 µM (inactive)	> 100 µM (inactive)	> 100 µM (inactive)	> 100		> 100 µM (inactive)	> 100 µM (inactive)	42 µM (inactive)	> 100 µM (inactive)		89.9 µM (inactive)
Cc1nc2sc3cccc(Cl)c3n2c(=O)c1/N=N/c1ccc(Cl)cc1	> 100 µM (inactive)		99.8 µM (inactive)	> 100 µM (inactive)	53.1 µM (inactive)	> 100 µM (inactive)	71 µM (inactive)	85.3 µM (inactive)		> 100 µM (inactive)	> 100 µM (inactive)	> 100 µM (inactive)	> 100	> 100 µM (inactive)	77.8 µM (inactive)	45.9 µM (inactive)	> 100 µM (inactive)	> 100 µM (inactive)	> 100 µM (inactive)	46.7 µM (inactive)
CC1(C)O[C@H]2OC(CO)C(N=[N+]=[N-])[C@H]2O1 (stereo not given in full)	> 100 µM (inactive)	> 100 µM (inactive)	> 100 µM (inactive)	> 100 µM (inactive)	> 100 µM (inactive)	> 100 µM (inactive)	> 100 µM (inactive)	> 100 µM (inactive)	> 100 µM (inactive)	> 100 µM (inactive)	> 100 µM (inactive)	> 100 µM (inactive)	> 100	> 100 µM (inactive)	> 100 µM (inactive)	> 100 µM (inactive)		> 100 µM (inactive)	> 100 µM (inactive)	> 100 µM (inactive)
C=C1C(=O)O[C@H]2C[C@@]3(COC(C)=O)C=COC=C(COC(=O)C(C)C)C3CC12 (stereo not given in full)	24 µM (inactive)	51.4 µM (inactive)	> 100 µM (inactive)	> 100 µM (inactive)	> 100 µM (inactive)		61.9 µM (inactive)	12.2 µM (inactive)	13.2 µM (inactive)	> 100 µM (inactive)	25.9 µM (inactive)	> 100 µM (inactive)	> 100	21.5 µM (inactive)	> 100 µM (inactive)	> 100 µM (inactive)	67.6 µM (inactive)	45.7 µM (inactive)	> 100 µM (inactive)	> 100 µM (inactive)
COc1ccccc1Nc1nc(NNC(=O)Cc2ccccc2)nc(NNC(=O)c2ccncc2)n1	> 10 µM (inactive)	> 10 µM (inactive)	> 10 µM (inactive)			> 10 µM (inactive)	> 10 µM (inactive)	> 10 µM (inactive)	> 10 µM (inactive)	> 10 µM (inactive)	> 10 µM (inactive)	> 10 µM (inactive)	> 10	> 10 µM (inactive)	> 10 µM (inactive)	9.04 µM (inactive)		> 10 µM (inactive)	> 10 µM (inactive)	
COc1ccc(NC(=S)N/N=C/c2cccc(C)n2)cc1	2.82 µM (inactive)	8.41 µM (inactive)	6.05 µM (inactive)	7.16 µM (inactive)	4.09 µM (inactive)	> 24.1 µM (inactive)	3.9 µM (inactive)	4.93 µM (inactive)	2.24 µM (inactive)	3.98 µM (inactive)	3.42 µM (inactive)	3.46 µM (inactive)	2.31	3.68 µM (inactive)	5.22 µM (inactive)	24.7 µM (inactive)		1.41 µM (inactive)	6.12 µM (inactive)	3.48 µM (inactive)
O=C(O)Cc1cccc2c1OC(c1ccccc1)C(Cl)(C(=O)c1ccccc1)C2=O (stereo not given)	3.21 µM (inactive)	13.2 µM (inactive)	16.1 µM (inactive)	40.1 µM (inactive)	23 µM (inactive)		18.7 µM (inactive)	19.1 µM (inactive)		12.9 µM (inactive)	20.4 µM (inactive)	19.9 µM (inactive)	14.4	17.4 µM (inactive)	29.4 µM (inactive)	35 µM (inactive)	> 10 µM (inactive)	14.4 µM (inactive)	31.6 µM (inactive)	17.7 µM (inactive)
